The target of test [1] is T1, AChE from electric eel (EeAChE) (Electrophorus electricus, UniProt O42275).
T1 construct: Acetylcholinesterase was obtained from electric eel (Electrophorus electricus L.); purchased Sigma-Aldrich (Prague, Czech Republic); host or cells: electric eel (natural source)
Conditions: SI = IC50 for AChE/IC50 for BuChE; cited from earlier work.

Test [2] deals with T2, BuChE from equine serum (EqBuChE) (Equus caballus, UniProt P81908).
T2 construct: butyrylcholinesterase was from an equine serum; purchased Sigma-Aldrich (Prague, Czech Republic); host or cells: equine serum (natural source)
T2 sequence (P81908 whole entry): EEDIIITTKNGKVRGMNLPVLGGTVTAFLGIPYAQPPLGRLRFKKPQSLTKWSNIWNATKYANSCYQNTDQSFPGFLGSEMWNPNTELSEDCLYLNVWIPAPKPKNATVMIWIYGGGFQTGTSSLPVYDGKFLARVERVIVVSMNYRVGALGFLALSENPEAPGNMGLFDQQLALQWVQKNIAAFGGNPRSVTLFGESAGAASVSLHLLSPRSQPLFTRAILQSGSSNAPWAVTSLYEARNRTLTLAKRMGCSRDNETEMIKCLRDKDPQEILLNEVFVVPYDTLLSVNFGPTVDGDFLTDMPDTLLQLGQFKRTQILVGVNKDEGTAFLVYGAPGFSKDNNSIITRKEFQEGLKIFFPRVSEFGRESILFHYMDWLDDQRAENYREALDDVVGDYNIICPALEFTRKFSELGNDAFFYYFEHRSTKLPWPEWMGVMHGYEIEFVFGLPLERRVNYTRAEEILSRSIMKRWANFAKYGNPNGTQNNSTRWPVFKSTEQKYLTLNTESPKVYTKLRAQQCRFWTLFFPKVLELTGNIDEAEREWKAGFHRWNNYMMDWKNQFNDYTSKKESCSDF
Conditions: mean ± SD; cited from earlier work.

Test [3] has as its target T2, BuChE from equine serum (EqBuChE). The test can be described thus: Inhibition of BuChE, modified Ellman's spectrophotometric method. It is filed as biochemical. Conditions: for Enhancement of BuChE inhibition compared to parent 3k: ratio of IC50 values vs parent 3k. The method, then:
(§1) The IC50 values were determined using the spectrophotometric Ellman’s method modified according to Zdražilová et al., which is a simple, rapid and direct method to determine the SH and -S-S- group content in proteins. This method is widely used for the screening of the efficiency of cholinesterases inhibitors. The enzymatic activity is measured indirectly by quantifying the concentration of the 5-thio-2-nitrobenzoic acid ion formed in the reaction between the thiol reagent 5,5′-dithio-bis(2-nitrobenzoic acid) and thiocholine, a product of substrate hydrolysis (i.e., acetylthiocholine; ATCH) by cholinesterases.
(§2) The enzyme activity in final reaction mixture (2000 µL) was 0.2 U/mL, concentration of acetylthiocholine (or butyrylthiocholine, BTCH) 40 µM and concentration of 5,5′-dithio-bis(2-nitrobenzoic acid) 0.1 mM for all reactions. The tested compounds were dissolved in DMSO and then diluted in demineralized water to the concentration of 1 µM. […] All measurements were carried in triplicate and the average values of reaction rate (v0-uninhibited reaction, vi-inhibited reaction) were used for construction of the dependence v0/vi vs. concentration of inhibitor. From obtained equation of regression curve, the value of IC50 was calculated (based on the definition of IC50).
(§3) Acetylcholinesterase was obtained from electric eel (Electrophorus electricus L.) and butyrylcholinesterase was from an equine serum.
(§4) Thirty-six benzamides 1–4l were evaluated as potential inhibitors of AChE from electric eel (EeAChE) and BuChE from equine serum (EqBuChE) using Ellman’s spectrophotometric method modified according to Zdražilová et al.. Their efficacy is expressed as IC50, i.e., the concentration required for 50% inhibition of the enzymatic activity. Based on inhibition of both cholinesterases, we calculated selectivity indexes (SI) as the ratio of IC50 value for AChE/IC50 value for BuChE to express the selectivity quantitatively (Table 1).

Test [4] has as its target T1, AChE from electric eel (EeAChE). Kind of test: Inhibition of AChE, modified Ellman's spectrophotometric method. Type of test: biochemical, electric eel (Electrophorus electricus L.). The method, then: as §1, §2, §3, §4
Test [5] has as its target T3, butyrylcholinesterase (Equus caballus, UniProt P81908).
T3 construct: butyrylcholinesterase was from an equine serum; purchased Sigma-Aldrich (Prague, Czech Republic); host or cells: equine serum (natural source)
The test can be described thus: Mechanism of inhibition, dependence log% A vs. time. It is filed as biochemical, equine. Conditions: inhibitor 3, 6, 9 µM; prolonged incubation. The method, then: (§5) The determination of mechanism of enzyme inhibition was described in detail previously. The inhibitor 5c was evaluated at three different concentrations for each enzyme.
(§6) Based on the changes of enzyme activity in the presence of tested inhibitor during prolonged incubation, it is possible to distinguish reversible, pseudo-irreversible and irreversible inhibition. In the case of reversible inhibition, the inhibitor is bound to the enzyme for a short period of time, the activity of the enzyme goes down immediately and, after dissociation of complex enzyme-inhibitor, the enzyme activity is restored. […] For irreversible inhibition, covalent and permanent bond between enzyme and inhibitor is typical and therefore the enzyme becomes inactivated. Irreversible inhibitor decreases enzyme activity successively and the dependence log% A vs. time in the presence of inhibitor is linear.
(§7) The procedure of measurement and data evaluation were in detail described previously in the reference. From the dependence log% A vs. time the mechanism of action of tested inhibitor can be deduced.
Figure 2 The dependence log% A vs. time. Enzyme: butyrylcholinesterase, derivative 5c, concentration of inhibitor: 3 µM (rhomb), 6 µM (square), 9 µM (triangle).

Test [6] deals with T4, AChE (Electrophorus electricus, UniProt O42275).
T4 construct: Acetylcholinesterase was obtained from electric eel (Electrophorus electricus L.); purchased Sigma-Aldrich (Prague, Czech Republic); host or cells: electric eel (natural source)
T4 sequence (O42275 24-633): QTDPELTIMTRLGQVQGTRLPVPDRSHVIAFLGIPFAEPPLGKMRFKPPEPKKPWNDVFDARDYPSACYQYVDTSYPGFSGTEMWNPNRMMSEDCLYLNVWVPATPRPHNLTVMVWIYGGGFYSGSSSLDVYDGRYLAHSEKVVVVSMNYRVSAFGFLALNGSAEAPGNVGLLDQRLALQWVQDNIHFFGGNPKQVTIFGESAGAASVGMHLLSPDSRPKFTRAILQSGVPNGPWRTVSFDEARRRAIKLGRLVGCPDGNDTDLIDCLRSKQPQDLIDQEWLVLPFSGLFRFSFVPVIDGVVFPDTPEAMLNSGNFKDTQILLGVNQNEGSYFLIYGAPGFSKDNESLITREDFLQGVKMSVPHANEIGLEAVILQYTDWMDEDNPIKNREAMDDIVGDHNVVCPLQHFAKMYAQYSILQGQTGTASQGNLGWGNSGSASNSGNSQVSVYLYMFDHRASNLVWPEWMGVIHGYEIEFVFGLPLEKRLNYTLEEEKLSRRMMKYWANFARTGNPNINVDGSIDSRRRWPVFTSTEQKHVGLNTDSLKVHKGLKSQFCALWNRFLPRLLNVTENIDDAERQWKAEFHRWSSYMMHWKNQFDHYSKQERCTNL
Kind of test: Type of inhibition, Lineweaver-Burk plot. To be noted: ATCH 20–80 µM. It is filed as biochemical, electric eel (Electrophorus electricus L.). The method, then:
(§8) For the determination of the type of inhibition Lineweaver-Burk plot was used and the measuring procedure was similar to that for the determination of IC50 (modified Ellman’s method was used). The enzyme activity in the final reaction mixture (2000 µL) was 0.2 U/mL, a concentration of ATCH or BTCH 20–80 µM and a concentration of 5,5′-dithio-bis(2-nitrobenzoic acid) 0.1 mM. For each of the substrate concentrations, four different concentrations of inhibitor were chosen. The dependence absorbance vs. time was observed and the reaction rate was calculated. All measurements were carried in duplicate and the average values of reaction rate were used for the construction of the Lineweaver-Burk plot. From obtained equations of regression curves, the values of KM (Michaelis constant) and Vm (maximum velocity) were calculated and the type of inhibition was evaluated.
(§9) The type of inhibition could be distinguished based on the Lineweaver-Burk plot and the comparison of the kinetic parameters KM and Vm of uninhibited and inhibited reactions. The diagnostic criterion for competitive inhibition is that Vm is unaffected by inhibitor and KM for inhibited reaction is increased. All lines in Lineweaver-Burk plot share a common y-intercept. For non-competitive inhibitor KM is unchanged, but Vm of inhibited reaction is decreased. All lines in Lineweaver-Burk plot share a common x-intercept. […]

The target of test [7] is T5, acetylcholinesterase (Electrophorus electricus, UniProt O42275).
T5 construct: Acetylcholinesterase was obtained from electric eel (Electrophorus electricus L.); purchased Sigma-Aldrich (Prague, Czech Republic); host or cells: electric eel (natural source)
T5 sequence (O42275 24-633): as above
Kind of test: Mechanism of inhibition, dependence log% A vs. time. Type of test: biochemical, electric eel (Electrophorus electricus L.). To be noted: inhibitor 10, 30, 90 µM; prolonged incubation. The method, then:
as §5, §6, §7
Figure 1 The dependence log% A vs. time. Enzyme: acetylcholinesterase, derivative 5c, concentration of inhibitor: 10 µM (rhomb), 30 µM (square), 90 µM (triangle).

The target in test [8] is T6, BuChE (Equus caballus, UniProt P81908).
T6 construct: butyrylcholinesterase was from an equine serum; purchased Sigma-Aldrich (Prague, Czech Republic); host or cells: equine serum (natural source)
T6 sequence (P81908 whole entry): as the sequence (P81908 whole entry) above
Kind of test: Type of inhibition, Lineweaver-Burk plot. Conditions: BTCH 20–80 µM. Type of test: biochemical, equine. The method, then: as §8, §9

SMILES strings stand for the structures. Several values for one entry are separate records, joined by “and”; a condition that tells them apart may be missing. Equal entries are not always repeated. Entries after “also recorded” stand apart in the source; their conditions may differ. Where two headings read alike, the source gives them in different places.

T1 sequence (O42275 24-633): as the sequence (O42275 24-633) above
T3 sequence (P81908 whole entry): as the sequence (P81908 whole entry) above

Regarding `CCOP(=O)(OCC)Oc1cc(Cl)ccc1C(=O)Nc1ccc(C(F)(F)F)cc1` [Compound 5a], in test [1], the “Selectivity AChE/BuChE” value is given as 8.77. Besides, the IC50 in test [2] was 9.84 ± 0.06 µM. The “Enhancement of BuChE inhibition compared to parent 3k” value in test [3] is reported as “up to 20.3 times”.
For `CCOP(=S)(OCC)Oc1cc(Cl)ccc1C(=O)Nc1ccc(C(F)(F)F)cc1` [Compound 5b], the “Selectivity AChE/BuChE” value in test [1] was 0.50. Besides, the “Enhancement of AChE inhibition compared to parent 3k” value in test [4] (ratio of IC50 values vs parent 3k) worked out at 6.6 times. Moreover, the “Enhancement of BuChE inhibition compared to parent 3k” value in test [3] is “up to 20.3 times”.
On to `CCOP(OCC)Oc1cc(Cl)ccc1C(=O)Nc1ccc(C(F)(F)F)cc1` [Compound 5c, 5-Chloro-2-{[4-(trifluoromethyl)phenyl]carbamoyl}phenyl diethyl phosphite], for which, in test [5], the “Mechanism of inhibition (BuChE)” value is listed as “pseudo-irreversible inhibitor; also recorded: pseudo-irreversible inhibition”. Also, in test [6], the “Type of inhibition (AChE)” value was “mixed inhibition; also recorded: mixed inhibitory mechanism”. Also, in test [7], the “Mechanism of inhibition (AChE)” value is on record as “pseudo-irreversible inhibitor; also recorded: pseudo-irreversible inhibition”. Moreover, in test [4] (SI = IC50 for AChE/IC50 for BuChE, SI lower than 1 means selectivity for AChE), the “Selectivity AChE/BuChE” value is listed as 28.00. Also, the IC50 in test [4] (mean ± SD, n = three experiments, read-out: IC50 (EeAChE)) is 66.4 ± 1.14 µM; in test [3] (mean ± SD, n = three experiments, read-out: IC50 (EqBuChE)), 2.4 µM and 2.37 µM. Moreover, in test [3] (phosphite 5c vs phosphate 5a), the “Improvement of activity against BuChE compared to phosphate 5a” value is on record as 4.2 times. For the same compound, the “Enhancement of BuChE inhibition compared to parent 3k” value in test [3] is recorded as 84.2 times. Besides, the “Type of inhibition (BuChE)” value in test [8] is “mixed inhibition; also recorded: mixed inhibitory mechanism”.

The IC50 is the concentration that gives 50% inhibition.
